This note sets out measurements from US20150344427A1 (EPIZYME, INC., priority 2012, published 2015).

Assay [1] has as its system WSU-DLCL2 cells. The experiment in a line: Cell Proliferation Analysis, WSU-DLCL2. The note with it: Homo sapiens, WSUDLCL2, 144 h, 6 days, Cell Titer Glo. Format: cell-based. The text has this:
WSU-DLCL2 suspension cells were purchased from DSMZ (German Collection of Microorganisms and Cell Cultures, Braunschweig, Germany). RPMI/Glutamax Medium, Penicillin-Streptomycin, Heat Inactivated Fetal Bovine Serum were purchased from Life Technologies, Grand Island, N.Y., USA. V-bottom polypropylene 384-well plates were purchased from Greiner Bio-One, Monroe, N.C., USA. Cell culture 384-well white opaque plates were purchased from Perkin Elmer, Waltham, Mass., USA. Cell-Titer Glo® was purchased from Promega Corporation, Madison, Wis., USA. SpectraMax M5 plate reader was purchased from Molecular Devices LLC, Sunnyvale, Calif., USA.
WSU-DLCL2 suspension cells were maintained in growth medium (RPMI 1640 supplemented with 10% v/v heat inactivated fetal bovine serum and cultured at 37° C. under 5% CO2. Under assay conditions, cells were incubated in Assay Medium (RPMI 1640 supplemented with 20% v/v heat inactivated fetal bovine serum and 100 units/mL penicillin-streptomycin) at 37° C. under 5% CO2.
For the assessment of the effect of compounds on the proliferation of the WSU-DLCL2 cell line, exponentially growing cells were plated in 384-well white opaque plates at a density of 1250 cell/ml in a final volume of 50 μl of assay medium. A compound source plate was prepared by performing triplicate nine-point 3-fold serial dilutions in DMSO, beginning at 10 mM (final top concentration of compound in the assay was 20 μM and the DMSO was 0.2%). A 100 nL aliquot from the compound stock plate was added to its respective well in the cell plate. […] After addition of compounds, assay plates were incubated for 6 days at 37° C., 5% CO2, relative humidity >90% for 6 days. Cell viability was measured by quantization of ATP present in the cell cultures, adding 35 μl of Cell Titer Glo® reagent to the cell plates. Luminescence was read in the SpectraMax M5. The concentration inhibiting cell viability by 50% was determined using a 4-parametric fit of the normalized dose response curves.

The target in assay [2] is T1, EZH2 Y641F mutant (PRC2 enzyme) (Homo sapiens, UniProt Q15910, Y641F).
T1 construct: made in house; host or cells: Spodoptera frugiperda (sf9) cells, baculovirus
T1 sequence (Q15910 whole entry Y641F): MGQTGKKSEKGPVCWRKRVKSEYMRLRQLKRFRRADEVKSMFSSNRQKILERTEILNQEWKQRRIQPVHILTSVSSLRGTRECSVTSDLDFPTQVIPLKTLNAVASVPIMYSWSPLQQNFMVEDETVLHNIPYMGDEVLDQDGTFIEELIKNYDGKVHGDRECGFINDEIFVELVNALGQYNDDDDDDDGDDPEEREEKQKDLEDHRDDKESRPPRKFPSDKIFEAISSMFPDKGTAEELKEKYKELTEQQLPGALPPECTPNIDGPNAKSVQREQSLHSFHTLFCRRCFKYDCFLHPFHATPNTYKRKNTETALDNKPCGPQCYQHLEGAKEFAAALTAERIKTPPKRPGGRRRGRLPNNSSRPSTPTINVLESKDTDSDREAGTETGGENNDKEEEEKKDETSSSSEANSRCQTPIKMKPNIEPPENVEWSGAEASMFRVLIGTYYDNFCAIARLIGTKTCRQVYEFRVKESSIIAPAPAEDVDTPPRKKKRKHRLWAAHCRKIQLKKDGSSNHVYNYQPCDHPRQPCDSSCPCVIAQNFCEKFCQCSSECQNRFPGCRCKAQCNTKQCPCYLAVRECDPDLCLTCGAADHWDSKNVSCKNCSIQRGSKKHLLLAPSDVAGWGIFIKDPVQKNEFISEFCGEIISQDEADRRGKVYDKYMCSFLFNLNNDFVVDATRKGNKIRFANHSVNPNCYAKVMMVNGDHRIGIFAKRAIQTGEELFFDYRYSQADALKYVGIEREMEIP
T1 sequence (O75530 whole entry partner): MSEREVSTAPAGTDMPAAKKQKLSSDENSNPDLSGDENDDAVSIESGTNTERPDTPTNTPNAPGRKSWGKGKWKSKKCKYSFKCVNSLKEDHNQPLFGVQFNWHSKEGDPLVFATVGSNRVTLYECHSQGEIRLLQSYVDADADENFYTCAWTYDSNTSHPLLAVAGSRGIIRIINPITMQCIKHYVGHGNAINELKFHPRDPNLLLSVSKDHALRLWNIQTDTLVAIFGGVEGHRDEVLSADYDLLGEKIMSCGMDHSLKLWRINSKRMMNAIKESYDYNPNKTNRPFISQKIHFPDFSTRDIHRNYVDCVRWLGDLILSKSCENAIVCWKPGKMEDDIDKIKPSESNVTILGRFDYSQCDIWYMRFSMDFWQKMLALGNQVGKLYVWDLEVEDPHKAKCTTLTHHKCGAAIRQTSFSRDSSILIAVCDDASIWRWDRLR
T1 sequence (Q15022 whole entry partner): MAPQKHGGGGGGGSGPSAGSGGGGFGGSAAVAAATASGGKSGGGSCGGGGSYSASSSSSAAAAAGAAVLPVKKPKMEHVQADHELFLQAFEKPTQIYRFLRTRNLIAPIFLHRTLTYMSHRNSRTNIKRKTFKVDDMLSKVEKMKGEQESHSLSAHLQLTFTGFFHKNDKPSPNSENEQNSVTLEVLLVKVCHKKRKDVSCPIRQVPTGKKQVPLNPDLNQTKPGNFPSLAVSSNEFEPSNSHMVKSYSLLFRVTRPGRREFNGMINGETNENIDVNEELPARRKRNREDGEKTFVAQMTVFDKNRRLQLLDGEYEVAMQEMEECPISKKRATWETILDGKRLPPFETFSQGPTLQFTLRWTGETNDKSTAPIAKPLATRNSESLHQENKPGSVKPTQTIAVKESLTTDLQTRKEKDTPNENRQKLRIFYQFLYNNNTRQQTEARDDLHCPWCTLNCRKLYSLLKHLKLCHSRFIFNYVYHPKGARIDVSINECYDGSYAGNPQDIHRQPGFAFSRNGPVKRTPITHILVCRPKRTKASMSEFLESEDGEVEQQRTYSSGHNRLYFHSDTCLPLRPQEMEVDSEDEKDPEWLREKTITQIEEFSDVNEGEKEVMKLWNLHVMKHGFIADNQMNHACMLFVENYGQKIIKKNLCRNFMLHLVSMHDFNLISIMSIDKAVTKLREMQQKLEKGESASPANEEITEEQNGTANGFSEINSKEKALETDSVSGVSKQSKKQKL
T1 sequence (Q09028 whole entry partner): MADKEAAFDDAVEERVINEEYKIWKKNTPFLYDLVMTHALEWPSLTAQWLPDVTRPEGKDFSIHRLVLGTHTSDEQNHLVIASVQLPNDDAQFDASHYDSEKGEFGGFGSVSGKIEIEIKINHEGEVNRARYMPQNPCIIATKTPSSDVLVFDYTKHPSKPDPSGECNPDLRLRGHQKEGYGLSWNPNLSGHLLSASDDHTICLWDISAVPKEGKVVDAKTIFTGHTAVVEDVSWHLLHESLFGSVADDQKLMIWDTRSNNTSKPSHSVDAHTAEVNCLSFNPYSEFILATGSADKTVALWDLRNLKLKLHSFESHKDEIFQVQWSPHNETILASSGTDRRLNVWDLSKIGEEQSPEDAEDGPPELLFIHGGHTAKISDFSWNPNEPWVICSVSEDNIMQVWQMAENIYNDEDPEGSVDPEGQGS
Kind of assay: PRC2 enzyme assay on peptide substrate, EZH2 Y641F mutant. The settings on record: Y641F mutant PRC2 enzyme 4 nM, H3K27me2 peptide, 3H-SAM Flashplate. Format: biochemical. The text has this:
(§1) General Materials. S-adenosylmethionine (SAM), S-adenosylhomocyteine (SAH), bicine, KCl, Tween20, dimethylsulfoxide (DMSO) and bovine skin gelatin (BSG) were purchased from Sigma-Aldrich at the highest level of purity possible. Dithiothreitol (DTT) was purchased from EMD. ^3H-SAM was purchased from American Radiolabeled Chemicals with a specific activity of 80 Ci/mmol. 384-well streptavidin Flashplates were purchased from PerkinElmer.
(§2) Peptides representative of human histone H3 residues 21-44 containing either an unmodified lysine 27 (H3K27me0) or dimethylated lysine 27 (H3K27me2) were synthesized with a C-terminal G(K-biotin) linker-affinity tag motif and a C-terminal amide cap by 21st Century Biochemicals. […] The sequences are listed below.
(§3) Human PRC2 enzymes were purified as 4-component enzyme complexes co-expressed in Spodoptera frugiperda (sf9) cells using a baculovirus expression system. […] The EED subunit contained an N-terminal FLAG tag that was used to purify the entire 4-component complex from sf9 cell lysates.
(§4) The assays were all performed in a buffer consisting of 20 mM bicine (pH=7.6), 0.5 mM DTT, 0.005% BSG and 0.002% Tween20, prepared on the day of use. Compounds in 100% DMSO (1 μL) were spotted into polypropylene 384-well V-bottom plates (Greiner) using a Platemate 2×3 outfitted with a 384-channel pipet head (Thermo). DMSO (1 μL) was added to columns 11, 12, 23, 24, rows A-H for the maximum signal control, and SAH, a known product and inhibitor of PRC2 (1 μL) was added to columns 11,12, 23, 24, rows I-P for the minimum signal control. A cocktail (40 μL) containing the wild-type PRC2 enzyme and H3K27me0 peptide or any of the Y641 mutant enzymes and H3K27me2 peptide was added by Multidrop Combi (Thermo). The compounds were allowed to incubate with PRC2 for 30 min at 25° C., then a cocktail (10 μL) containing a mixture of non-radioactive and ^3H-SAM was added to initiate the reaction (final volume=51 μL). In all cases, the final concentrations were as follows: wild-type or mutant PRC2 enzyme was 4 nM, SAH in the minimum signal control wells was 1 mM and the DMSO concentration was 1%. The assays were stopped by the addition of non-radioactive SAM (10 μL) to a final concentration of 600 μM, which dilutes the ^3H-SAM to a level where its incorporation into the peptide substrate is no longer detectable. 50 μL of the reaction in the 384-well polypropylene plate was then transferred to a 384-well Flashplate and the biotinylated peptides were allowed to bind to the streptavidin surface for at least 1 h before being washed three times with 0.1% Tween20 in a Biotek ELx405 plate washer. The plates were then read in a PerkinElmer TopCount platereader to measure the quantity of ^3H-labeled peptide bound to the Flashplate surface, measured as disintegrations per minute (dpm) or alternatively, referred to as counts per minute (cpm).
(§5) Where dpm=disintegrations per minute, cmpd=signal in assay well, and min and max are the respective minimum and maximum signal controls.
(§6) Where top and bottom are the normally allowed to float, but may be fixed at 100 or 0 respectively in a 3-parameter fit. The Hill Coefficient normally allowed to float but may also be fixed at 1 in a 3-parameter fit. Y is the % inhibition and X is the compound concentration.

Assay [3] concerns the target T2, wild-type EZH2 (PRC2 enzyme) (Homo sapiens, UniProt Q15910).
T2 construct: made in house; host or cells: Spodoptera frugiperda (sf9) cells, baculovirus
The experiment in a line: PRC2 enzyme assay on peptide substrate, wild-type EZH2. Format: biochemical. The settings on record: wild-type PRC2 enzyme 4 nM, H3K27me0 peptide, 3H-SAM Flashplate; read-out: WT EZH2 IC50.
Excerpt: as §1, §2, §3, §4, §5, §6

T2 sequence (Q15910 whole entry): as the sequence (Q15910 whole entry Y641F) above, with F641Y counted along it
T2 sequence (O75530 whole entry partner): as the sequence (O75530 whole entry partner) above
T2 sequence (Q15022 whole entry partner): as the sequence (Q15022 whole entry partner) above
T2 sequence (Q09028 whole entry partner): as the sequence (Q09028 whole entry partner) above

Take `CCN(c1cc(Cl)cc(C(=O)NCc2c(C)[nH]c(C)cc2=O)c1C)[C@H]1CC[C@H](N(C)C)CC1` [Compound 1, 5-chloro-N-((2,6-dimethyl-4-oxo-1,4-dihydropyridin-3-yl)methyl)-3-(((trans)-4-(dimethylamino)cyclohexyl)(ethyl)amino)-2-methylbenzamide]: the IC50 (as a rule, the concentration that inhibits the measured activity by half) in assay [1] is 17100 nM; in assay [2] it was 40 nM; in assay [3] it was 22 to 37 nM.
Turning to `CCN(c1cc(Cl)cc(C(=O)NCc2c(C)n(C)c(C)cc2=O)c1C)[C@H]1CC[C@H](N(C)C)CC1` [Compound 86], the IC50 in assay [1] was more than 20000 nM; in assay [2] it was more than 50000 nM; in assay [3], more than 50000 nM.
In the case of `CCn1c(C)cc(=O)c(CNC(=O)c2cc(Cl)cc(N(CC)[C@H]3CC[C@H](N(C)C)CC3)c2C)c1C` [Compound 87], the IC50 came to 3000 nM in assay [1], 37400 nM in assay [2] and 35400 nM in assay [3].
`CCN(c1cc(-c2ccc(COC)nc2)cc(C(=O)NCc2c(Cl)[nH]c(C)cc2=O)c1C)[C@H]1CC[C@H](N(C)C)CC1` [Compound 88]: the results for the IC50 in assay [1], in assay [2] and in assay [3] were 5100 nM, 46 nM and 40 nM, respectively.
In the case of `CCN(c1cc(-c2cnn(C)c2)cc(C(=O)NCc2c(Cl)[nH]c(C)cc2=O)c1C)[C@H]1CC[C@H](N(C)C)CC1` [Compound 89], the figures for the IC50 in assay [1], in assay [2] and in assay [3] were 11500 nM, 229 nM and 270 nM, respectively.
The like results for `CCN(c1cc(-c2ccc(C)nc2)cc(C(=O)NCc2c(Cl)[nH]c(C)cc2=O)c1C)[C@H]1CC[C@H](N(C)C)CC1` [Compound 90] were, in that order, 5300 nM, 40 nM and 50 nM.
In the same order, the values of `CCN(c1cc(-c2cnc(C)cn2)cc(C(=O)NCc2c(Cl)[nH]c(C)cc2=O)c1C)[C@H]1CC[C@H](N(C)C)CC1` [Compound 91] are 5400 nM, 49 nM and 140 nM.
In the same order, the values of `CCN(c1cc(-c2ccc(OCCOC)cc2)cc(C(=O)NCc2c(Cl)[nH]c(C)cc2=O)c1C)[C@H]1CC[C@H](N(C)C)CC1` [Compound 92] are 4400 nM, 23 nM and 38 nM.
For `CCN(c1cc(-c2ccc(OCCOC)cc2)cc(C(=O)NCc2c(C)[nH]c(C)cc2=O)c1C)[C@H]1CC[C@H](N(C)C)CC1` [Compound 93], the IC50 in assay [1] is 1200 nM; in assay [2], 5 nM; in assay [3] it was 5 nM.
For the molecule `CCCN(c1cc(-c2ccc(OCCOC)cc2)cc(C(=O)NCc2c(C)[nH]c(C)cc2=O)c1C)[C@H]1CC[C@H](N(C)C)CC1` [Compound 94], the IC50 was 2900 nM in assay [1], 7 nM in assay [2] and 25 nM in assay [3].
The like results for `CCN(c1cc(-c2ccc(OCCOC)cc2)cc(C(=O)NCc2c(C)[nH]c(C)cc2=O)c1C)[C@H]1CC[C@H](N(C)CCOC)CC1` [Compound 100] were, in that order, 4200 nM, 18 nM and 27 nM.
